# Key:
# NK cells = conditions: Crohn's disease patients; Brogan et al. 1985; cited from earlier work
# [1] = tested on: CD4+ T cell proliferation; assay: T cell proliferation in the absence of NK cells with exogenous cytokines added; type: cell-based, human; conditions: cytokine added at 20 ng mL-1, three-day culture (FIG. 9)
# Description: Before co-culture, round bottom 96-well plates were coated with anti-CD3/CD28 antibody (R&D Systems, Minneapolis, Minn.) in PBS at 1.5 ug ml^−1 at room temperature for 2 hours, or at 0.5 ug ml^−1 at 4° C. overnight. […] For transwell assay, 24-well plates were used; NT (cells were placed on the filter side of a 1.0 um pore-sized transwell (BD Falcon, San Jose, Calif.), and CFSE-stained T cells were placed on the plate side of the transwell.
Molecule,depletion of NK cells by therapy compared to other lymphoid cell types (NK cells),CD4+ cell proliferation with exogenous cytokine [1]
Nc1nc2nc[nH]c2c(=S)[nH]1 [6-thioguanine],quickly and profoundly depleted,–
IL-6: recombinant cytokine (R&D Systems) added to a final concentration of 20 ng ml-1,–,greatly facilitated
"IFN-y: recombinant cytokine (R&D Systems) added to a final concentration of 20 ng ml-1 (protein, UniProt P01579 24-161, looked up) Interferon gamma: QDPYVKEAENLKKYFNAGHSDVADNGTLFLGILKNWKEESDRKIMQSQIVSFYFKLFKNFKDDQSIQKSVETIKEDMNVKFFNSNKKKRDDFEKLTNYSVTDLNVQRKAIHELIQVMAELSPAAKTGKRKRSQMLFRG",–,marginal effects
